Target: T1, αγ heterodimer of human NAD-IDH (IDH3) (Homo sapiens, UniProt P50213+P51553)
T1 construct: gene IDH3A; alpha and gamma co-expressed in E. coli BL21(DE3) from pQlinkN; gamma C-terminal TEV-His6, His6 cleaved by TEV; 80 kDa heterodimer (dimer of heterodimers at high concentration)
T1 sequence (P50213 28-366): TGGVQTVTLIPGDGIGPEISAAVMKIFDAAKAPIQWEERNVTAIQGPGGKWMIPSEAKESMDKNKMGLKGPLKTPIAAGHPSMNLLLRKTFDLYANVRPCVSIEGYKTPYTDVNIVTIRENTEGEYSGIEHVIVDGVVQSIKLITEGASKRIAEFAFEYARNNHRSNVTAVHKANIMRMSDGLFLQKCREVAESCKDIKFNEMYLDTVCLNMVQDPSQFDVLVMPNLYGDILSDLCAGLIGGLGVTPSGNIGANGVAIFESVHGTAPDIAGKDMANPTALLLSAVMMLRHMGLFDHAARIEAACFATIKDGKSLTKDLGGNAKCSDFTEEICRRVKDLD
T1 sequence (P51553 40-393): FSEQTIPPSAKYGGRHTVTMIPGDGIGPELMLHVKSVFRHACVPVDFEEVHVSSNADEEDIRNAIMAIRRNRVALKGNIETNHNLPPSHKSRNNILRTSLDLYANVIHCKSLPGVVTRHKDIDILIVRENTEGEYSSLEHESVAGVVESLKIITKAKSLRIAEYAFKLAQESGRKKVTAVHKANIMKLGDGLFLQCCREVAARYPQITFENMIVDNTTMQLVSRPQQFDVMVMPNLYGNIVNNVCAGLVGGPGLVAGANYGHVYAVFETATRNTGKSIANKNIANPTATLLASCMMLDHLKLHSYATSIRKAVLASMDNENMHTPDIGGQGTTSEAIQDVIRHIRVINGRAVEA
Assay: crystal structure, […] Å
Type: binding
Details: allosteric citrate subsite in gamma subunit (second site), with Mg2+ and ADP; pH 7.5

SMILES: O=C(O)C[C@H](C(=O)O)[C@@H](O)C(=O)O [ICT]
- crystal structure, 2.8 Å: In this structure, ICT binds to the CIT-binding subsite with a similar orientation as CIT
